In patent publication US8114886B2, “Pyridylmethylsulfone derivative” (Daiichi Sankyo Company, Limited, priority 2005, dated 2012):

Experiments:
[1] = test system: β-amyloid protein (Aβ) secreted by E35 cells (H4 cells with APP751 gene); assay: Screening system using E35 cells for inhibition of production/secretion of β-amyloid protein (sandwich ELISA of Aβ in culture medium); type: cell-based, human; settings: Homo sapiens, 24 hours with compound, Aβ in culture supernatant by ELISA, read-out: Inhibitory Activity for Production of A(EC50)
Protocol: The activity of the compound inhibiting β-amyloid protein production was measured on E35 cells prepared by introducing APP751 gene, a gene of a human wild type β-amyloid protein precursor protein, to human glioma cells (H4 cells), by quantifying the amount of β-amyloid protein (Aβ) secreted to the culture medium by means of a sandwich type Enzyme-Linked Immunosorbent Assay (ELISA) method.
That is, E35 cells inoculated on a 96-well plate were cultured in an incubator at 37° C. which was maintained at equilibrium with 5% carbon dioxide, using Dulbecco's Modified Eagle's Medium containing inactivated 10% fetal bovine serum as the culture medium. After 24 hours from the inoculation, a test compound dissolved in a DMSO solution was added. The DMSO solution of the test compound was prepared at a concentration of 2000 times of the final concentration, such that the DMSO concentration in the culture medium would be 0.05%. After culturing for another 24 hours, the culture supernatant was recovered, and this was added to a 96-well plate for ELISA onto which a monoclonal antibody against Aβ, 25-1, was solid-phased. The plate was incubated at 4° C. for 16 to 20 hours. The plate was washed with phosphate buffer solution (pH 7.4), and then a biotinylated monoclonal antibody against Aβ, MA32-40, was added thereto. The plate was left to stand at 4° C. for 2 hours. The plate was washed again with phosphate buffer solution, and then alkaline phosphatase-conjugated streptavidin was added to conjugate streptavidin to biotin. Subsequently, the plate was washed with phosphate buffer solution. To this, Blue Phos (Kirkegaard & Perry Laboratories, Inc.) was added. After incubating the plate for an appropriate time, the reaction was terminated with an acid, and the absorbance for each well was measured. The amount of Aβ contained in the culture supernatant was determined from a calibration curve which was produced separately, and the amount was compared with that of control cells to which the compound was not added. Thus, the concentration at which 50% of the Aβ production is inhibited (EC50 value) was calculated. In addition, the 25-1 antibody and MA32-40 antibody used in ELISA were mouse monoclonal antibodies derived from the hybridoma cell clone lines, which were each produced and selected according to a standard method using Aβ25-35 and Aβ1-8 as antigens, respectively, and which specifically recognize their respective antigens. […]
The scores indicate ++++ for the case where EC50 was 5 nM or less; +++ for the case where EC50 was 5 to 50 nM; ++ for the case where EC50 was 50 to 500 nM; and + for the case where EC50 was 500 nM to 5 μM.

| SMILES | melting point | EC50 [1] |
| --- | --- | --- |
| Cc1cc(C(=O)N(C)C)ncc1C(c1cc(F)ccc1F)S(=O)(=O)c1ccc(F)cc1 (centres unmarked) [Example 14, 5-[(2,5-Difluorophenyl)[(4-fluorophenyl)sulfonyl]methyl]-N,N,4-trimethylpyridine-2-carboxamide] | 176 to 177 °C | 50 to 500 nM |
| Cc1cc(C(=O)NCCO)ncc1C(c1c(F)ccc(F)c1F)S(=O)(=O)c1ccc(F)cc1 (centres unmarked) [Example 94, 5-[[(4-Fluorophenyl)sulfonyl](2,3,6-trifluorophenyl)methyl]-N-(2-hydroxyethyl)-4-methylpyridine-2-carboxamide] | 164 to 165 °C | ≤ 5 nM |
| Cc1cc(C(=O)NCCC[S+](C)[O-])ncc1C(c1cc(F)ccc1F)S(=O)(=O)c1ccc(F)cc1 (centres unmarked) [Example 73, 5-[(2,5-Difluorophenyl)[(4-fluorophenyl)sulfonyl]methyl]-4-methyl-N-[3-(methylsulfinyl)propyl]pyridine-2-carboxamide] | 170 to 173 °C | ≤ 5 nM |
| Cc1cc(C(=O)N2CCC(O)CC2)ncc1C(c1cc(F)ccc1F)S(=O)(=O)c1ccc(F)cc1 (centres unmarked) [Example 76, 1-[[5-[(2,5-Difluorophenyl)[(4-fluorophenyl)sulfonyl]methyl]-4-methylpyridin-2-yl]carbonyl]piperidin-4-ol] | 171 to 173 °C | 500 to 5000 nM |
| CON(C)C(=O)c1cc(C)c(C(c2cc(F)ccc2F)S(=O)(=O)c2ccc(F)cc2)cn1 (centres unmarked) [Example 79, 5-[(2,5-Difluorophenyl) [(4-fluorophenyl)sulfonyl]methyl]-N-methoxy-N,4-dimethylpyridine-2-carboxamide] | 156 to 158 °C | 50 to 500 nM |
| Cc1cc(C(=O)NC(CO)CO)ncc1C(c1cc(F)ccc1F)S(=O)(=O)c1ccc(F)cc1 (centres unmarked) [Example 75, 5-[(2,5-Difluorophenyl)[(4-fluorophenyl)sulfonyl]methyl]-N-[2-hydroxy-1-(hydroxymethyl)ethyl]-4-methylpyridine-2-carboxamide] | 150 to 152 °C | ≤ 5 nM |
| CONC(=O)c1cc(C)c(C(c2cc(F)ccc2F)S(=O)(=O)c2ccc(F)cc2)cn1 (centres unmarked) [Example 78, 5-[(2,5-Difluorophenyl)[(4-fluorophenyl)sulfonyl]methyl]-N-methoxy-4-methylpyridine-2-carboxamide] | 231 to 234 °C | 5 to 50 nM |
| Cc1cc(C(=O)N(C)CCO)ncc1C(c1cc(F)ccc1F)S(=O)(=O)c1ccc(F)cc1 (centres unmarked) [Example 19, 5-[(2,5-Difluorophenyl)[(4-fluorophenyl)sulfonyl]methyl]-N-(2-hydroxyethyl)-N,4-dimethylpyridine-2-carboxamide] | 123 to 125 °C | 500 to 5000 nM |
| Cc1cc(C(=O)N(C)C)ncc1C(c1cc(F)ccc1F)S(=O)(=O)c1ccc(Cl)cc1 (centres unmarked) [Example 5, 5-[[(4-Chlorophenyl)sulfonyl](2,5-difluorophenyl)methyl]-N,N,4-trimethylpyridine-2-carboxamide] | 207 to 208 °C | 50 to 500 nM |
| Cc1cc(C(=O)NCCCS(C)(=O)=O)ncc1C(c1cc(F)ccc1F)S(=O)(=O)c1ccc(F)cc1 (centres unmarked) [Example 74, 5-[(2,5-Difluorophenyl)[(4-fluorophenyl)sulfonyl]methyl]-4-methyl-N-[3-(methylsulfonyl)propyl]pyridine-2-carboxamide] | 182 to 185 °C | ≤ 5 nM |
| Cc1cc(C(=O)N2CCOCC2)ncc1C(c1cc(F)ccc1F)S(=O)(=O)c1ccc(F)cc1 (centres unmarked) [Example 77, 4-[[5-[(2,5-Difluorophenyl)[(4-fluorophenyl)sulfonyl]methyl]-4-methylpyridin-2-yl]carbonyl]morpholine] | 165 to 167 °C | 500 to 5000 nM |
| Cc1cc(C(N)=O)ncc1C(c1cc(F)ccc1F)S(=O)(=O)c1ccc(Cl)cc1 (centres unmarked) [Example 9, 5-[[(4-Chlorophenyl)sulfonyl](2,5-difluorophenyl)methyl]-4-methylpyridine-2-carboxamide] | 241 to 242 °C | ≤ 5 nM |
| Cc1cc(C(N)=O)ncc1C(c1c(F)ccc(F)c1F)S(=O)(=O)c1ccc(OC(F)(F)F)cc1 (centres unmarked) [Example 123, 4-Methyl-5-[[[4-(trifluoromethoxy)phenyl]sulfonyl](2,3,6-trifluorophenyl)methyl]pyridine-2-carboxamide] | 219 to 220 °C | ≤ 5 nM |
| COc1ccc(S(=O)(=O)C(c2cnc(C(=O)NCCO)cc2C)c2cc(F)ccc2F)cc1F (centres unmarked) [Example 47, 5-[(2,5-Difluorophenyl)[(3-fluoro-4-methoxyphenyl)sulfonyl]methyl]-N-(2-hydroxyethyl)-4-methylpyridine-2-carboxamide] | 137 to 138 °C | 5 to 50 nM |
| CNC(=O)c1cc(C)c(C(c2cc(F)ccc2F)S(=O)(=O)c2ccc(F)cc2)cn1 (centres unmarked) [Example 13, 5-[(2,5-difluorophenyl)[(4-fluorophenyl)sulfonyl]methyl]-N, 4-dimethylpyridine-2-carboxamide] | 201 to 202 °C | ≤ 5 nM |
| Cc1cc(C(=O)NCCC(=O)O)ncc1C(c1cc(F)ccc1F)S(=O)(=O)c1ccc(F)cc1 (stereo not drawn) [Example 81, N-[[5-[(2,5-difluorophenyl)[(4-fluorophenyl)sulfonyl]methyl]-4-methylpyridin-2-yl]carbonyl]-β-alanine] | 223 to 226 °C |  |
| CC(=O)NC(=O)c1cc(C)c(C(c2cc(F)ccc2F)S(=O)(=O)c2ccc(F)cc2)cn1 (centres unmarked) [Example 107, N-acetyl-5-[(2,5-difluorophenyl)[(4-fluorophenyl)sulfonyl]methyl]-4-methylpyridine-2-carboxamide] | 182 to 183 °C |  |
| Cc1cc(C(=O)NCOC(=O)CO)ncc1C(c1cc(F)ccc1F)S(=O)(=O)c1ccc(F)cc1 (centres unmarked) [Example 109, [[[5-[(2,5-Difluorophenyl)[(4-fluorophenyl)sulfonyl]methyl]-4-methylpyridin-2-yl]carbonyl]amino]methyl hydroxyacetate] | 84 °C |  |
| COc1ccc(S(=O)(=O)C(c2cnc(C(=O)O)cc2C)c2cc(F)ccc2F)cc1F (centres unmarked) [Example 46, 5-[(2,5-Difluorophenyl)[(3-fluoro-4-methoxyphenyl)sulfonyl]methyl]-4-methylpyridine-2-carboxylic acid] | 196 to 197 °C |  |
| Cc1cc(C(=O)NCO)ncc1C(c1c(F)ccc(F)c1F)S(=O)(=O)c1ccc(F)c(F)c1 (centres unmarked) [Example 122, 5-[[(3,4-Difluorophenyl)sulfonyl](2,3,6-trifluorophenyl)methyl]-N-(hydroxymethyl)-4-methylpyridine-2-carboxamide] | 119 to 120 °C |  |
| COc1ccc(S(=O)(=O)C(c2cnc(C(=O)O)cc2C)c2cc(F)ccc2F)cc1 (centres unmarked) [Example 42, 5-[(2,5-Difluorophenyl)[(4-methoxyphenyl)sulfonyl]methyl]-4-methylpyridine-2-carboxylic acid] | 194 to 195 °C |  |
| Cc1cc(C(=O)NCOCCO)ncc1C(c1cc(F)ccc1F)S(=O)(=O)c1ccc(F)cc1 (centres unmarked) [Example 112, 5-[(2,5-Difluorophenyl)[(4-fluorophenyl)sulfonyl]methyl]-N-[(2-hydroxyethoxy)methyl]-4-methylpyridine-2-carboxamide] | 175 to 177 °C |  |
| Cc1cc(C(N)=O)ncc1C(c1c(F)ccc(F)c1F)S(=O)(=O)c1ccc(F)c(F)c1 (centres unmarked) [Example 121, 5-[[(3,4-Difluorophenyl)sulfonyl](2,3,6-trifluorophenyl)methyl]-4-methylpyridine-2-carboxamide] | 200 to 201 °C |  |
| Cc1cc(C(=O)NCO)ncc1C(c1c(F)ccc(F)c1F)S(=O)(=O)c1ccc2ccoc2c1 (centres unmarked) [Example 127, 5-[(1-Benzofuran-6-ylsulfonyl)(2,3,6-trifluorophenyl)methyl]-N-(hydroxymethyl)-4-methylpyridine-2-carboxamide] | 185 to 186 °C (dec.) |  |
| CC(=O)OCNC(=O)c1cc(C)c(C(c2cc(F)ccc2F)S(=O)(=O)c2ccc(F)cc2)cn1 (centres unmarked) [Example 86, [[[5-[(2,5-Difluorophenyl)(4-fluorophenylsulfonyl)methyl]-4-methylpyridin-2-yl]carbonyl]amino]methyl acetate] | 111 to 113 °C |  |
| Cc1cc(C(N)=O)ncc1C(c1c(F)ccc(F)c1F)S(=O)(=O)c1ccc2ccoc2c1 (centres unmarked) [Example 126, 5-[(1-Benzofuran-6-ylsulfonyl)(2,3,6-trifluorophenyl)methyl]-4-methylpyridine-2-carboxamide] | 237 to 240 °C |  |
